# Measurements as given in article PMC11939470, “The Cyclic Antimicrobial Peptide C-LR18 Has Enhanced Antibacterial Activity, Improved Stability, and a Longer Half-Life Compared to the Original Peptide” (Antibiotics, 2025).
# Where a SMILES comes first, the peptide text is derived from it. Bridges are numbered along the chain shown (N, C = ends).
# System: Gram-negative bacteria
# Assay: Geometric mean MIC (MBC) and therapeutic index
# Type: cell-based
# Conditions: average MIC against the tested Gram-negative strains
# Experimental: The MIC test was performed using the method recommended by the National Committee for Clinical Laboratory Standards (NCCLS) Standards and Guidelines, and the method was modified according to the characteristics of antimicrobial peptides. The bacteria were cultured at 37 °C for 16 h, and the microbial suspension was diluted to a final concentration of 5 × 10^5 CFU/mL. Then, 50 µL of bacterial solution was mixed with 50 µL of MHB containing different concentrations peptides (0.5–256 µM) in a 96-well plate. […] The assays were performed three times. Geometric mean MIC represents the average MIC of the peptide against all the tested strains.
# MBC detection was performed according to the method of Taiyari et al.. According to the MIC results, 50 µL of bacterial cultures was absorbed from the minimum inhibitory concentration hole and the three previous holes, respectively; transferred to a new MH solid medium; and incubated in an incubator at 37 °C overnight, and the bacteria on the plate were counted. The concentration of antibacterial peptide that kills 99.99% of the tested bacteria is defined as the minimum bactericidal concentration (MBC) of the peptide. The experiment was repeated three times. Geometric mean MBC represents the average […] of the peptide against all the tested strains.
smiles,measurement,value
CC(C)C[C@@H]1NC(=O)[C@H](CCCNC(=N)N)NC(=O)[C@H](CCCNC(=N)N)NC(=O)[C@H](CC(C)C)NC(=O)[C@H](CC(C)C)NC(=O)[C@H](CCCNC(=N)N)NC(=O)[C@H](CC(C)C)NC(=O)[C@@H]2CCCN2C(=O)[C@H](CCCNC(=N)N)NC(=O)[C@H](CCCNC(=N)N)NC(=O)[C@@H]2CCCN2C(=O)[C@H](CC(C)C)NC(=O)[C@H](CCCNC(=N)N)NC(=O)[C@H](CC(C)C)NC(=O)[C@H](CC(C)C)NC(=O)[C@H](CCCNC(=N)N)NC(=O)[C@H](CCCNC(=N)N)NC(=O)[C@H](CC(C)C)NC(=O)[C@@H](N)CSSC[C@@H](C(=O)O)NC1=O [C-LR18] (H-CLRRLLRLPRRPLRLLRRLC-OH; disulfide 1-20; N-terminus and C-terminus assumed),Geometric mean MIC,2 µM
